Source: patent publication US10596254B2 (priority 2003, dated 2020)
Square brackets hold non-standard residues; d marks the D form. Ends that are not written are not given here. Cha = N[C@@H](CC1CCCCC1)C(=O)O

Columns and labels:
[1] = tested on: targets labeled with I9V peptide; experiment: Chromium release assay of immune splenocytes from immunized HLA A2/Kb mice, I9V-loaded targets; assay type: in vivo; details: two doses of 50 nmoles; E:T ratio of 100
Procedure: Fourteen days later, the spleens were retrieved. The CTL responses of the immune splenocytes were tested after one round of in vitro stimulation (IVS). […] […]. […] This experiment was repeated four times with similar results each time. Using a two-tailed T test, there was a significant difference of P<0.03 at all E:T ratios. […].
[…]; SEQ ID NO:10). See Hartmann et al., J. Immunol. 164:1617-1624, 2000. The chemical yield and purity of this conjugate were similar to the others synthesized above using CpG 1826 (murine). […] […] The CpG-ODN used in Conjugate 10 also is known under the trade names ProMune™ or Vaxmune™ (Coley Pharmaceutical Group).

[2] = tested on: recombinant vaccinia virus expressing the HIV-pol gene; design: species or system mice; details: mouse, in vivo
[3] = tested on: I9V-loaded JA2 cells; experiment: Chromium release assay, cells from immunized HHD II mice, I9V-loaded JA2 targets; assay type: in vivo; details: three mice each
Description: HHD II mice were immunized with 1 nmole of either Conjugate 7 or Conjugate 3 (which is the same as Conjugate 7 but also contains PADRE). […].
To address whether the defect in Conjugate 7 immunogenicity was the missing PADRE TH epitope, immunizations with Conjugate 7 plus PADRE TH were compared to immunizations with Conjugate 7 alone. […]. […] Further, the majority of the stimulating activity of the PADRE epitope is caused by the sequence itself, rather than the artificial junction caused by chimerizing the CTL and TH epitopes, since Conjugate 3 and Conjugate 7 plus PADRE in trans have similar immunogenicity. Similar fusion peptides, including a fusion peptide composed of PADRE and an HPV-specific CTL epitope, have been administered to volunteers and women with cervical neoplasia without causing observable autoimmunity

[4] = fmoc spps; Wang resin (substitution about 0.8 mmole/g), Novabiochem; HBTU/DIEA; details: conjugation step, scale approximately 0.22 mmole (0.4 g Fmoc-AA-Wang resin); for final hplc purity: Method B, 260 nm

Row | Substance | target cell lysis [1] | protection against viral challenge [2] | immunogenicity (chromium release) [3] | final hplc purity [4] | step mass [4]
1 | AKXVAAWTLKAAAILKEPVHGV, X = cyclohexylalanine (AK[Cha]VAAWTLKAAAILKEPVHGV) [PADRE:I9V fusion peptide] | 8% | equivalently unprotected | little immunogenicity | – | –
2 | KSS:PADRE:S9L + Oligo 3 | – | – | – | about 70-80% pure | About 6.0 mg
3 | PADRE:I9V:N:S9L + Oligo 3 | – | – | – | 70-80% pure | About 8.0 mg
